Experimental data published in patent US6737383B1, “Herbicidal oxadiazolidines” (priority 1999, dated 2004).

Assays:
wild oat = assay: Test B pre/postemergence wild oat; assay type: in vivo, Avena fatua
Summary of the method: (§1)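 Response is a visual 0-to-10 score relative to untreated plants, where 0 means no effect and 10 means complete control, taken twelve to sixteen days after application. Treatments went onto soil at planting and onto foliage of 1- to 4-leaf plants, using a surfactant-containing non-phytotoxic solvent.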

bedstraw = assay: Test B pre/postemergence bedstraw; assay type: in vivo, Galium aparine
Summary of the method: as §1

morningglory = assay: Test B pre/postemergence morningglory; assay type: in vivo, Ipomoea hederacea
Summary of the method: as §1

velvetleaf = assay: Test B pre/postemergence velvetleaf; assay type: in vivo, Abutilon theophrasti
Summary of the method: as §1

[1] = Postemergence, Rate 125 g/ha, scale 0 to 10, 0 is no effect, 10 is complete control
[2] = Preemergence, Rate 62 g/ha, scale of 0 to 10 where 0 is no effect and 10 is complete control
[3] = Preemergence, Rate 250 g/ha, scale of 0 to 10 where 0 is no effect and 10 is complete control
[4] = Preemergence, Rate 500 g/ha, scale of 0 to 10 where 0 is no effect and 10 is complete control
[5] = Rate 62 g/ha, Postemergence, scale 0 to 10 (0 no effect, 10 complete control)
[6] = Rate 500 g/ha, Postemergence, scale 0 to 10, 0 no effect, 10 complete control
[7] = Preemergence, Rate 62 g/ha, scale 0 to 10 (0 no effect, 10 complete control)
[8] = Rate 62 g/ha, Postemergence, scale of 0 to 10 where 0 is no effect and 10 is complete control
[9] = Rate 250 g/ha, Postemergence, scale of 0 to 10 where 0 is no effect and 10 is complete control
[10] = Postemergence, Rate 250 g/ha, scale 0 to 10, 0 is no effect, 10 is complete control

SMILES	Plant response rating, Wild oats (wild oat; [1])	Wild oats plant response rating (0 to 10 scale) (wild oat; Preemergence, Rate 125 g/ha)	Wild oats plant response rating (wild oat; [3])	Wild oats plant response rating (wild oat; [4])	Plant response rating, Wild oats (wild oat; [6])	Plant response rating, Bedstraw (bedstraw; [1])	Bedstraw plant response rating (0 to 10 scale) (bedstraw; Preemergence, Rate 125 g/ha)	Bedstraw plant response rating (bedstraw; [3])	Bedstraw plant response rating (bedstraw; [4])	Plant response rating, Morningglory (morningglory; [1])	Morningglory plant response rating (0 to 10 scale) (morningglory; Preemergence, Rate 125 g/ha)	Morningglory plant response rating (morningglory; [3])	Morningglory plant response rating (morningglory; [4])	Plant response rating, Morningglory (morningglory; [6])	Plant response rating, Velvetleaf (velvetleaf; [1])	Velvetleaf plant response rating (0 to 10 scale) (velvetleaf; Preemergence, Rate 125 g/ha)	Velvetleaf plant response rating (velvetleaf; [3])	Velvetleaf plant response rating (velvetleaf; [4])	Plant response rating, Velvetleaf (velvetleaf; [6])	Plant response rating, Wild oats (wild oat; [7])	other results
Cc1ccccc1-n1c(=O)on(C(=O)N(c2ccc(Cl)cc2)C(C)C2CC2)c1=O (stereo not drawn) [Compound 330]	0	0	0	0	0	0	0	0	0	0	0	0	0	4	0	0	0	0	0	–	Wild oats plant response rating (wild oat; [2]): 0; Wild oats plant response rating (wild oat; [5]): 0; Bedstraw plant response rating (bedstraw; [5]): 0; Morningglory plant response rating (morningglory; [2]): 0; Morningglory plant response rating (morningglory; [5]): 0; Velvetleaf plant response rating (velvetleaf; [2]): 0; Velvetleaf plant response rating (velvetleaf; [5]): 0
CC(C)N(C(=O)n1oc(=O)n(C2CCCCCC2)c1=O)c1ccc(F)cc1F [Compound 342]	0	0	0	4	0	5	0	0	–	7	0	0	0	9	0	0	0	0	0	0	Wild oats plant response rating (wild oat; [8]): 0; Plant response rating, Bedstraw (bedstraw; [7]): 0; Bedstraw plant response rating (bedstraw; [8]): 4; Plant response rating, Bedstraw (bedstraw; [9]): 5; Plant response rating, Bedstraw (bedstraw; [6]): 5; Plant response rating, Morningglory (morningglory; [7]): 0; Morningglory plant response rating (morningglory; [8]): 7; Plant response rating, Velvetleaf (velvetleaf; [7]): 0; Velvetleaf plant response rating (velvetleaf; [8]): 0
CC(C)N(C(=O)n1oc(=O)n(C2CCCO2)c1=O)c1ccc(F)cc1 (stereo not drawn) [Compound 345]	0	0	0	0	0	0	0	0	0	0	0	0	0	0	0	0	0	0	0	0	Wild oats plant response rating (wild oat; [8]): 0; Plant response rating, Bedstraw (bedstraw; [7]): 0; Bedstraw plant response rating (bedstraw; [8]): 0; Plant response rating, Bedstraw (bedstraw; [9]): 0; Plant response rating, Bedstraw (bedstraw; [6]): 0; Plant response rating, Morningglory (morningglory; [7]): 0; Morningglory plant response rating (morningglory; [8]): 0; Plant response rating, Velvetleaf (velvetleaf; [7]): 0; Velvetleaf plant response rating (velvetleaf; [8]): 0
Cc1cccc(C(C)(C)C)c1-n1c(=O)on(C(=O)N(c2ccc(F)cc2)C(C)C)c1=O [Compound 359]	0	0	0	0	0	0	0	0	0	0	0	0	0	0	0	0	0	0	2	0	Wild oats plant response rating (wild oat; [8]): 0; Plant response rating, Bedstraw (bedstraw; [7]): 0; Bedstraw plant response rating (bedstraw; [8]): 0; Plant response rating, Bedstraw (bedstraw; [9]): 0; Plant response rating, Bedstraw (bedstraw; [6]): 0; Plant response rating, Morningglory (morningglory; [7]): 0; Morningglory plant response rating (morningglory; [8]): 0; Plant response rating, Velvetleaf (velvetleaf; [7]): 0; Velvetleaf plant response rating (velvetleaf; [8]): 0
CCN(CC)C(=O)n1oc(=O)n(-c2ccccc2C)c1=O [Compound 364]	0	0	0	3	0	0	0	0	3	0	0	0	0	4	0	0	0	0	0	0	Plant response rating, Wild oats (wild oat; [10]): 0; Wild oats plant response rating (wild oat; [8]): 0; Plant response rating, Bedstraw (bedstraw; [10]): 0; Plant response rating, Bedstraw (bedstraw; [7]): 0; Bedstraw plant response rating (bedstraw; [8]): 0; Plant response rating, Bedstraw (bedstraw; [6]): 0; Plant response rating, Morningglory (morningglory; [10]): 0; Plant response rating, Morningglory (morningglory; [7]): 0; Morningglory plant response rating (morningglory; [8]): 0; Plant response rating, Velvetleaf (velvetleaf; [10]): 0; Plant response rating, Velvetleaf (velvetleaf; [7]): 0; Velvetleaf plant response rating (velvetleaf; [8]): 0
